Measured values from patent US20140107109A1, “AMINO-DIHYDROTHIAZINE AND AMINO-DIOXIDO DIHYDROTHIAZINE COMPOUNDS AS BETA-SECRETASE ANTAGONISTS AND METHODS OF USE” (Amgen Inc., priority 2012, published 2014).
Where two headings read alike, the source gives them in different places.

Columns and labels:
[1] = system: Aβ40 in conditioned medium of cells stably expressing Amyloid Precursor Protein (APP); test: In vitro BACE cell-based assay (HEK cell assay), Aβ40 sandwich ELISA
Outline: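 Aβ40 in conditioned medium was quantified by time-resolved fluorescence sandwich ELISA (pAb40 capture 3 h at 4 °C, biotin-6E10 detection 2 h at 4 °C) after 24 h compound exposure of APP-expressing cells. Doses spanned 10 points from 100 μM or 10 μM top, 0.1% DMSO; IC50 was derived from percent of control.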

[2] = system: Abeta 40 in cerebrospinal fluid (CSF) and brain; test: In vivo inhibition of beta-secretase: Abeta 40 reduction in CSF and brain of the rat; conditions: 10 mpk (unless otherwise noted), after 4 hrs
From the text: In Vivo Inhibition of Beta-Secretase
Several animal models, including mouse, rat, dog, and monkey, may be used to screen for inhibition of beta-secretase activity in vivo following administration of a test compound sample. Animals used in this invention can be wild type, transgenic, or gene knockout animals. […] One to twenty-four hours following the administration of compound, animals are sacrificed, and brains as well as cerebrospinal fluid (CSF) and plasma are removed for analysis of A-beta levels and drug or test compound concentrations (Dovey et al., 2001, Journal of Neurochemistry, 76, 173-181) Beginning at time 0, animals are administered by oral gavage, or other means of delivery such as intravenous injection, an inhibitory test compound of up to 100 mg/kg in a standard, conventional formulation, such as 2% hydroxypropyl methylcellulose, 1% Tween80. A separate group of animals receive 2% hydroxypropyl methylcellulose, 1% Tween80 alone, containing no test compound, and serve as a vehicle-control group. […] CSF or brain supernatants are then analyzed for the presence of A-beta peptide by specific sandwich ELISA assays based on ECL (Electrochemiluminescence) technology. For example, rat Abeta40 is measured using biotinylated-4G8 (Signet) as a capture antibody and Fab40 (an in-house antibody specific to the C-terminal of Abeta40) as a detection antibody.

Cathepsin D (Cat D) = molecular target: T1, Cathepsin D (Cat D) (Homo sapiens, UniProt P07339); test: In vitro enzymatic Cathepsin D (Cat D) FRET assay; assay type: biochemical; conditions: read-out: CatD IC50
T1 construct: Recombinant Cat D was expressed in CHO cells; made in house; host or cells: CHO cells
T1 sequence (P07339 65-412, species assumed): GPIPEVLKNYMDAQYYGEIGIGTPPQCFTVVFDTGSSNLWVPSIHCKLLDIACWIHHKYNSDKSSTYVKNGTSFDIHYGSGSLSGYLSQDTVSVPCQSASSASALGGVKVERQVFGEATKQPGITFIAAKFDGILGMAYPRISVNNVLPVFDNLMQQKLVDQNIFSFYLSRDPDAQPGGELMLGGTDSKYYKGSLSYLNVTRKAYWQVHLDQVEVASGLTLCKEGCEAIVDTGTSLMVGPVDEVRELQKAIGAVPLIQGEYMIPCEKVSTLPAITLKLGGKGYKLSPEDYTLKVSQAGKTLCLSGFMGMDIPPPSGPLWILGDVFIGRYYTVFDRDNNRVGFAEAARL
Outline: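 FRET read-out: a fluorophore/quencher-labelled peptide substrate is cleaved by 9 nM Cat D (recombinant, CHO-expressed) following a one-hour preincubation with inhibitor dilutions in DMSO. Tris buffer added to neutralize pH ends the reaction before fluorescence measurement.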

Aβ in lumbar CSF = conditions: Ph I clinical trial; cited from earlier work
[3] = system: pigment epithelium of the rat's eye; conditions: higher compound dose given for three months; cited from earlier work
[4] = people brought in after termination of the Ph I dosing trial; cited from earlier work
[5] = molecular target: Beta Secretase enzyme (BACE1) (Homo sapiens, UniProt P56817); test: In vitro enzymatic BACE FRET assay; assay type: biochemical; conditions: read-out: BACE1 FRET assay IC50
Chain of Beta Secretase enzyme (BACE1) (P56817 46-501): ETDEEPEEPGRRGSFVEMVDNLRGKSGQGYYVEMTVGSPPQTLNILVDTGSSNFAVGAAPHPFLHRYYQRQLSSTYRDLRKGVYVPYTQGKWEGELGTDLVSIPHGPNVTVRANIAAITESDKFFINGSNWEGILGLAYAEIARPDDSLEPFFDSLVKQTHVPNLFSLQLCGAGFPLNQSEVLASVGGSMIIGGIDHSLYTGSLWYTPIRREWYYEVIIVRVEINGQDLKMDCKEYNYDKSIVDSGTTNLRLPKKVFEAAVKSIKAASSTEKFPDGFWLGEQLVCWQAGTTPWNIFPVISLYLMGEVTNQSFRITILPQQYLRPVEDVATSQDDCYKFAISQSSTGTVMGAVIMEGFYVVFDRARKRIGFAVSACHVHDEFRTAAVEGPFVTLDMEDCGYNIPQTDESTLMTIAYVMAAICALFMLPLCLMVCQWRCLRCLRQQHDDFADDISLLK
Outline: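 Readout: dequenched fluorescence (ex 488 nm/[…]) after neutralizing with Tris buffer. Reactions, begun by adding 50 nM quenched peptide substrate spanning the BACE cleavage site, were incubated one hour at pH 4.2 in 0.05 M acetate with 100 uM genapol and 10% final DMSO.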

**Q.** For `COc1cnc(C(=O)Nc2ccc(F)c([C@]34COC[C@H]3S(=O)(=O)C(C)(C)C(N)=N4)c2)c(C)c1` [Example 430, N-(3-((4aS,7aS)-3-amino-2,2-dimethyl-1,1-dioxido-7,7a-dihydro-2H-furo[3,4-b][1,4]thiazin-4a(5H)-yl)-4-fluorophenyl)-5-methoxy-3-methyl-2-pyridinecarboxamide], which IC50 ([1]; Homo sapiens, HEK293, average IC50, cell assay) is on record?
**A.** 11.7 nM

**Q.** What about the “% reduction of rat CSF levels at 10pmk” value ([2]; rat CSF) of the same compound?
**A.** 31%

**Q.** And the “% reduction of rat brain levels at 10mpk” value ([2]; rat brain)?
**A.** 1%

**Q.** What about the IC50 (Cathepsin D (Cat D)) of the same compound?
**A.** 144 µM

**Q.** With `C[C@@]1(c2cc(-c3cncnc3)c(F)cc2F)CCSC(N)=N1` [LY2811376, (S)-4-(2,4-difluoro-5-pyrimidin-5-yl-phenyl)-4-methyl-5,6-dihydro-4H-[1,3]thiazin-2-ylamine] as the compound, how does the “safety and tolerability in healthy volunteers” value (Aβ in lumbar CSF) read?
**A.** safe and well tolerated

**Q.** Which rat toxicology finding [3] does the source give for `C[C@@]1(c2cc(-c3cncnc3)c(F)cc2F)CCSC(N)=N1` [LY 2811376] here?
**A.** damaged the pigment epithelium of the rat's eye

**Q.** And the “eye assessments of Ph I subjects” value [4]?
**A.** did not show any abnormalities

**Q.** Which IC50 ([1]; average IC50, cell assay) does the source give for “N-(3-((4aR,7aS)-3-amino-2,2-dimethyl-1,1-dioxido-7,7a-dihydro-2H-furo[3,4-b][1,4]thiazin-4a(5H)-yl)-4-fluorophenyl)-5-chloro-3-methyl-2-pyridinecarboxamide, N-(3-((4aS,7aR)-3-amino-2,2-dimethyl-1,1-dioxido-7,7a-dihydro-2H-furo[3,4-b][1,4]thiazin-4a(5H)-yl)-4-fluorophenyl)-5-chloro-3-methyl-2-pyridinecarboxamide [Example 427]” here?
**A.** 33 nM

**Q.** And the IC50 ([5]; average IC50, enzyme assay)?
**A.** 1 nM

**Q.** And the IC50 (Cathepsin D (Cat D))?
**A.** 220 µM

**Q.** For “N-(3-((4aR,7aS)-3-amino-2,2-dimethyl-1,1-dioxido-7,7a-dihydro-2H-furo[3,4-b][1,4]thiazin-4a(5H)-yl)-4-fluorophenyl)-5-methoxy-3-methyl-2-pyridinecarboxamide, N-(3-((4aS,7aR)-3-amino-2,2-dimethyl-1,1-dioxido-7,7a-dihydro-2H-furo[3,4-b][1,4]thiazin-4a(5H)-yl)-4-fluorophenyl)-5-methoxy-3-methyl-2-pyridinecarboxamide [Example 428]”, which IC50 ([1]; average IC50, cell assay) is on record?
**A.** 37.3 nM

**Q.** What about the IC50 ([5]; average IC50, enzyme assay) of the same compound?
**A.** 9.71 nM

**Q.** And the IC50 (Cathepsin D (Cat D))?
**A.** 309 µM

**Q.** What does the source list for “N-(3-((7R)-9-amino-7-(fluoromethyl)-5,5-dioxido-5-thia-8-azaspiro[3.5]non-8-en-7-yl)-4-fluorophenyl)-3-chloro-1,7-naphthyridin-8-amine, N-(3-((7S)-9-amino-7-(fluoromethyl)-5,5-dioxido-5-thia-8-azaspiro[3.5]non-8-en-7-yl)-4-fluorophenyl)-3-chloro-1,7-naphthyridin-8-amine [Example 243]”?
**A.** IC50 ([1]; average IC50, cell assay): 77.9 nM; IC50 ([5]; average IC50, enzyme assay): 1.31 nM; IC50 (Cathepsin D (Cat D)): 363 µM

**Q.** For “N-(3-((7R)-9-amino-7-(fluoromethyl)-5,5-dioxido-5-thia-8-azaspiro[3.5]non-8-en-7-yl)-4-fluorophenyl)-5-(difluoromethoxy)-3-methyl-2-pyridinecarboxamide, N-(3-((7S)-9-amino-7-(fluoromethyl)-5,5-dioxido-5-thia-8-azaspiro[3.5]non-8-en-7-yl)-4-fluorophenyl)-5-(difluoromethoxy)-3-methyl-2-pyridinecarboxamide [Example 410]”, which IC50 [1] is on record?
**A.** 11.9 nM

**Q.** What about the IC50 [5] of the same compound?
**A.** 2.3 nM

**Q.** What about the IC50 (Cathepsin D (Cat D)) of the same compound?
**A.** 170 µM
